Values after ≈ are worked out from the molar mass of the structure shown.
Target: not listed separately
Assay: Inhibition of Clostridium perfringens neuraminidase 4-methylumbelliferyl-alpha-D-Nacetylneuraminic acid sodium salt hydrate as substrate by fluorometry
`COc1cc2c(cc1O)CC[n+]1cc3c(OC)c(OC)ccc3c(C)c1-2` gave an IC50 of 41.3 µM. For `COc1cc2c(cc1O)CC[n+]1cc3c(OC)c(OC)ccc3cc1-2` [JATRORRHIZINE], the IC50 was 37 µM. With `COc1ccc2cc3[n+](cc2c1OC)CCc1cc2c(cc1-3)OCO2` [BERBERINE] the IC50 was 13.5 µM. `COc1cc2c(cc1OC)-c1c(OC)c(OC)cc3c1[C@H](C2)N(C)CC3` [GLAUCINE] showed an IC50 of 96.9 µM. With `COc1cc2c(cc1OC)-c1cc3ccc(OC)c(OC)c3c[n+]1CC2` [PALMITINE] the IC50 was 12.8 µM. `c1c2c(cc3c1OCO3)-c1cc3ccc4c(c3c[n+]1CC2)OCO4` [COPTISINE] showed an IC50 of 25.1 µM. Compound `c1c2c(cc3c1OCO3)-c1cc3cc4c(cc3c[n+]1CC2)OCO4` has an IC50 of 65.2 µM. For `COc1cc(/C=C/C(=O)CC(=O)/C=C/c2ccc(O)c(OC)c2)ccc1O` [CURCUMIN], the IC50 was 6 µM. In the case of `COc1cc2c(cc1OC)-c1c(C)c3cc(OC)c(OC)cc3c[n+]1CC2`, the IC50 is reported as 32.6 µM.

Target: Neuraminidase (Influenza A virus (strain A/USSR/90/1977 H1N1), UniProt P03469)
Sequence (P03469 whole entry): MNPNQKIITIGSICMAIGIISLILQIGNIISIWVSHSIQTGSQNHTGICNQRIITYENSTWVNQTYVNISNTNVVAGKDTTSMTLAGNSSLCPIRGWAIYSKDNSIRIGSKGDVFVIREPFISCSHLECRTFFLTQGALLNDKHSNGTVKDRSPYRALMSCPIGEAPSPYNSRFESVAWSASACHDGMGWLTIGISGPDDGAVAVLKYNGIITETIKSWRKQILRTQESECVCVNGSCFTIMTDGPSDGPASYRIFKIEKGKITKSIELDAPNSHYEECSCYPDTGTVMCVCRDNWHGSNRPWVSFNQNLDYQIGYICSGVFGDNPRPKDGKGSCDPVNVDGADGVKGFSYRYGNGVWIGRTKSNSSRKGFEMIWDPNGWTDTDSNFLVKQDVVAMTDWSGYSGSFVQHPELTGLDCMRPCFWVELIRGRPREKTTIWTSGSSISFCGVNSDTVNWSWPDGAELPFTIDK
Assay: Inhibition of recombinant Influenza A virus H1N1 neuraminidase using 4-methylumbelliferyl-alpha-D-Nacetylneuraminic acid sodium salt hydrate as substrate by fluorometry
With `COc1cc2c(cc1O)CC[n+]1cc3c(OC)c(OC)ccc3c(C)c1-2` the IC50 was 80.5 µM. `COc1cc2c(cc1O)CC[n+]1cc3c(OC)c(OC)ccc3cc1-2` [JATRORRHIZINE] showed an IC50 of 66.2 µM. With `COc1ccc2cc3[n+](cc2c1OC)CCc1cc2c(cc1-3)OCO2` [BERBERINE] the IC50 was 38.5 µM. `COc1cc2c(cc1OC)-c1cc3ccc(OC)c(OC)c3c[n+]1CC2` [PALMITINE] showed an IC50 of 33.1 µM. In the case of `c1c2c(cc3c1OCO3)-c1cc3ccc4c(c3c[n+]1CC2)OCO4` [COPTISINE], the IC50 is reported as 25.3 µM. `c1c2c(cc3c1OCO3)-c1cc3cc4c(cc3c[n+]1CC2)OCO4` showed an IC50 of 126 µM.

Target: not listed separately
Assay: Inhibition of Clostridium perfringens neuraminidase by Dixon plot
`COc1ccc2cc3[n+](cc2c1OC)CCc1cc2c(cc1-3)OCO2` [BERBERINE] gave a Ki of 11.9 µM. In the case of `COc1cc2c(cc1OC)-c1cc3ccc(OC)c(OC)c3c[n+]1CC2` [PALMITINE], the Ki is reported as 16.9 µM.

System: Clostridium perfringens
Assay: Antibacterial activity against Clostridium perfringens in tryptic soy broth after 24 hrs
Format: functional
`COc1ccc2cc3[n+](cc2c1OC)CCc1cc2c(cc1-3)OCO2` [BERBERINE] gave an MIC of 52.2 µM. With `COc1cc2c(cc1OC)-c1cc3ccc(OC)c(OC)c3c[n+]1CC2` [PALMITINE] the MIC was 44.7 µM. `CC1(C)S[C@@H]2[C@H](NC(=O)[C@H](N)c3ccccc3)C(=O)N2[C@H]1C(=O)O` [AMPICILLIN] gave an MIC of 0.3 µM (≈ 0.105 µg/mL).

System: Clostridium perfringens
Assay: Inhibition of Clostridium perfringens neuraminidase 4-methylumbelliferyl-alpha-D-Nacetylneuraminic acid sodium salt hydrate as substrate at 100 uM by fluorometry
Compound `COc1cc2c(cc1OC)[C@H]1[C@@H](C)c3ccc(OC)c(OC)c3CN1CC2` has an inhibition of 12.7%. `c1cc2c(c3c1CC1c4cc5c(cc4CCN1C3)OCO5)OCO2` (configuration not stated) showed an inhibition of 4.7%.
